From PMC12365235, “Molecular mechanisms of thiazide-like diuretics-mediated inhibition of the human Na-Cl cotransporter” (Nature Communications, 2025)

Biological target: T1, NCCcryo (Homo sapiens, UniProt P55017, E240A)
T1 sequence (P55017 132-1021 E240A): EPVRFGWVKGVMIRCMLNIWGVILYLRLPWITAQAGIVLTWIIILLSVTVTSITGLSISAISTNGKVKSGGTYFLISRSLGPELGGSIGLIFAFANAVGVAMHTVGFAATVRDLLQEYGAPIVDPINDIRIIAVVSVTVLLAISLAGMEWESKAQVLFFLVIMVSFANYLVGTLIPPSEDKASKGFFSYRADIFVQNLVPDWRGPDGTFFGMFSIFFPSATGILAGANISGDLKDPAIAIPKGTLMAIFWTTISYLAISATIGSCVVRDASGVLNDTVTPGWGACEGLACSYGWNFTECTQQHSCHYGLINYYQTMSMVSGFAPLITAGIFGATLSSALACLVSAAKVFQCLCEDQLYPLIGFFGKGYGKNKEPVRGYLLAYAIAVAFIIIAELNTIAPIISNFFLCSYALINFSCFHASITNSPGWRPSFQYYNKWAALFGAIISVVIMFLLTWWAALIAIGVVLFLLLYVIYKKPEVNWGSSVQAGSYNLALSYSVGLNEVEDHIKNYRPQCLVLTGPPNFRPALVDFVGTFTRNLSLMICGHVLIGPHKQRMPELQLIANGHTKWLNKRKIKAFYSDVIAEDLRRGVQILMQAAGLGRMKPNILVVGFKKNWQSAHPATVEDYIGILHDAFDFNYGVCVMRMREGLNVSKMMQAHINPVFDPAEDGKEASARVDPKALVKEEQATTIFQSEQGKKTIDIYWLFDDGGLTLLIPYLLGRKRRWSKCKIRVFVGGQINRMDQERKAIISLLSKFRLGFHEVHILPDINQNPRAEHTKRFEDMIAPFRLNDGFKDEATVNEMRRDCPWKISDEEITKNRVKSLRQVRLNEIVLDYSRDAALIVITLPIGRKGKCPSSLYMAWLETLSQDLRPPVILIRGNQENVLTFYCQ
T1 sequence (A0A0G2KTI4 1-202 E76K partner): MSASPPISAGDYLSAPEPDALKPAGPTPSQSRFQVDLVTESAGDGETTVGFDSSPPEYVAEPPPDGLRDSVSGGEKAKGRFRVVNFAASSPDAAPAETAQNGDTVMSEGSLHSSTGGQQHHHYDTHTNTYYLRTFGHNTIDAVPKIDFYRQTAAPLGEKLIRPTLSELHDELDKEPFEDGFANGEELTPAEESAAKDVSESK
Assay: 125I- uptake assay, NCCcryo construct
Format: cell-based
Details: thiazide-sensitive iodide uptake; hNCC with DrNKCC1 NTD and E240A
Experimental: The NCCcryo construct consists of human NCC with its NTD (first 131 residues) replaced by that of zebrafish NKCC1 (first 202 residues), along with an E240A mutation and a Strep-tag II[69] at the N-terminus. The codon-optimized NCCcryo was cloned into a modified BacMam vector[70], which was then used for generating baculoviruses. HEK293S cells (3.0–3.5 × 10^6 cells per mL) were infected with the baculoviruses for NCCcryo, with sodium butyrate (10 mM) added 12–15 h afterwards, and the incubation temperature reduced to 30 °C. Two days after the addition of sodium butyrate, HEK293S cells were harvested.
HEK293S cell lines, cultured in 293 Freestyle medium (Life Technologies; plus 10% fetal bovine serum), stably expressing hNCC and its variants were generated following published protocols. Cells were transfected using Lipofectamine 3000 (Invitrogen) with a pSBbi-RP-based plasmid containing hNCC or its variants and the SB100X vector. Puromycin (2 μg/mL; Gemini Bio-Products) was used for selection of stable cell lines.
To prepare for the uptake experiment, cells were plated at 0.5 × 10^6 cells/well in 24-well plates one day in advance. […] Cells lysed using 1% sodium dodecyl sulfate (SDS) were analyzed by scintillation counting. […]

Compound	IC50 [nM]
NS(=O)(=O)c1cc(C2(O)NC(=O)c3ccccc32)ccc1Cl (centres unmarked) [chlorthalidone]	20
CC1Cc2ccccc2N1NC(=O)c1ccc(Cl)c(S(N)(=O)=O)c1 (centres unmarked) [indapamide]	9.1
